Data published in patent US20190262330A1, “Method of Treating Hepatocellular Carcinoma Using N-(4-(6,7-dimethoxyquinolin-4-yloxy)phenyl)-N′-(4-fluorophenyl)cyclopropane-1,1-dicarboxamide, (2S)-hydroxybutanedioate” (Exelixis, Inc., priority 2017, published 2019).

Legend:
[1] = Solubility in aqueous media; type: physicochemical
[2] = system: advanced RCC after prior anti-angiogenic therapy; experiment: METEOR trial, efficacy; type: in vivo, human
Excerpt: Patients were stratified by the number of prior VEGFR tyrosine kinase inhibitors (TKIs) and Memorial Sloan Kettering Cancer Center (MSKCC) Risk Group. […] The majority of the patients were male (75%), with a median age of 62 years. Sixty-nine percent (69%) received only one prior anti-angiogenic therapy. […] The main efficacy outcome measure was progression-free survival (PFS) assessed by a blinded independent radiology review committee among the first 375 subjects randomized. Other efficacy endpoints were objective response rate (ORR) and overall survival (OS) in the Intent-to-Treat (ITT) population. Tumor assessments were conducted every 8 weeks for the first 12 months, then every 12 weeks thereafter. Patients received treatment until disease progression or experiencing unacceptable toxicity. Patients on both arms who had disease progression could continue treatment at the discretion of the investigator.

[3] = system: patients with advanced renal cell carcinoma; experiment: METEOR trial, safety; type: in vivo, human
Excerpt: Patients on both arms who had disease progression could continue treatment at the discretion of the investigator [see Clinical Studies (14)].

[4] = system: sorafenib-tolerant patients with hepatocellular carcinoma; settings: in vivo; cited from earlier work
[5] = system: advanced RCC without prior therapy; experiment: CABOSUN trial, efficacy; type: in vivo, human; settings: ITT
Excerpt: All patients were required to have intermediate or poor risk disease as defined by the International Metastatic RCC Database Consortium (IMDC) risk group categories. Patients were stratified by IMDC risk group and presence of bone metastases (yes/no).
The major efficacy outcome measure was progression-free survival (PFS) by a retrospective blinded independent radiology review committee (BIRC).

[6] = system: patients with advanced renal cell carcinoma; experiment: CABOSUN trial, safety; type: in vivo, human
[7] = system: patients who have not received prior systemic therapy; settings: in vivo; cited from earlier work

COc1cc2nccc(Oc3ccc(NC(=O)C4(C(=O)Nc5ccc(F)cc5)CC4)cc3)c2cc1OC.O=C(O)C[C@H](O)C(=O)O [Cabozantinib (S)-malate salt]
Solubility [1]: practically insoluble

CO[C@H]1C[C@@H]2CC[C@@H](C)[C@@](O)(O2)C(=O)C(=O)N2CCCC[C@H]2C(=O)O[C@H]([C@H](C)C[C@@H]2CC[C@@H](OCCO)[C@H](OC)C2)CC(=O)[C@H](C)/C=C(\C)[C@@H](O)[C@@H](OC)C(=O)[C@H](C)C[C@H](C)/C=C/C=C/C=C/1C [Everolimus, everolimus]
Confirmed ORR, partial responses only ([2]; ITT): 3% | Median PFS (95% CI) ([2]; first 375 randomized): 3.8 (3.7, 5.4) months | Adverse reactions leading to study treatment being held ([3]; METEOR): 59% | Adverse reactions leading to study treatment discontinuation ([3]; METEOR): 10% | Palmar-plantar erythrodysesthesia, All Grades ([3]; METEOR adverse reaction): 6% | Palmar-plantar erythrodysesthesia, Grade 3-4 ([3]; METEOR adverse reaction): <1%

CNC(=O)c1cc(Oc2ccc(NC(=O)Nc3ccc(Cl)c(C(F)(F)F)c3)c(F)c2)ccn1 [Regorafenib]
Overall survival compared with placebo [4]: improved overall survival

CCN(CC)CCNC(=O)c1c(C)[nH]c(/C=C2\C(=O)Nc3ccc(F)cc32)c1C [Sunitinib, sunitinib]
Overall survival events [5]: (60) % | Confirmed ORR, partial responses only ([5]; BIRC): 9% | Median PFS ([5]; BIRC): 5.3 months | Progression-free survival events ([5]; BIRC): (63) % | Deaths within 30 days of treatment ([6]; CABOSUN): 6 deaths | ALT increased, Grade 3-4 ([6]; human, in vivo): 0% | AST increased, Grade 3-4 ([6]; human, in vivo): 3% | Anemia, Grade 3-4 ([6]; human, in vivo): 3% | Angiopathy, Grade 3-4 ([6]; human, in vivo): 1% | Arthralgia, Grade 3-4 ([6]; human, in vivo): 0% | Back pain, Grade 3-4 ([6]; human, in vivo): 0% | Blood creatinine increased, Grade 3-4 ([6]; human, in vivo): 3% | Bone pain, Grade 3-4 ([6]; human, in vivo): 1% | Confusional state, Grade 3-4 ([6]; human, in vivo): 1% | Constipation, Grade 3-4 ([6]; human, in vivo): 0% | Decreased appetite, Grade 3-4 ([6]; human, in vivo): 1% | Dehydration, Grade 3-4 ([6]; human, in vivo): 1% | Depression, Grade 3-4 ([6]; human, in vivo): 0% | Diarrhea, Grade 3-4 ([6]; human, in vivo): 11% | Dysphonia, Grade 3-4 ([6]; human, in vivo): 0% | Dyspnea, Grade 3-4 ([6]; human, in vivo): 6% | Fatigue, Grade 3-4 ([6]; human, in vivo): 17% | Hyperkalemia, Grade 3-4 ([6]; human, in vivo): 3% | Hypertension, Grade 3-4 ([6]; human, in vivo): 21% | Hypocalcemia, Grade 3-4 ([6]; human, in vivo): 0% | Hypomagnesemia, Grade 3-4 ([6]; human, in vivo): 0% | Hyponatremia, Grade 3-4 ([6]; human, in vivo): 8% | Hypophosphatemia, Grade 3-4 ([6]; human, in vivo): 7% | Hypotension, Grade 3-4 ([6]; human, in vivo): 1% | Lung infection, Grade 3-4 ([6]; human, in vivo): 0% | Lymphocyte count decreased, Grade 3-4 ([6]; human, in vivo): 6% | Nausea, Grade 3-4 ([6]; human, in vivo): 4% | Pain in extremity, Grade 3-4 ([6]; human, in vivo): 0% | Pain, Grade 3-4 ([6]; human, in vivo): 0% | Palmar-plantar erythrodysesthesia, Grade 3-4 ([6]; human, in vivo): 4% | Patients discontinued due to an adverse reaction ([6]; human, in vivo): 22% | Patients with any Grade 3-4 Adverse Reaction ([6]; human, in vivo): 65% | Patients with dose held ([6]; human, in vivo): 71% | Patients with dose reduced ([6]; human, in vivo): 35% | Platelet count decreased, Grade 3-4 ([6]; human, in vivo): 11% | Proteinuria, Grade 3-4 ([6]; human, in vivo): 1% | Renal failure acute, Grade 3-4 ([6]; human, in vivo): 1% | Skin ulcer, Grade 3-4 ([6]; human, in vivo): 0% | Stomatitis, Grade 3-4 ([6]; human, in vivo): 6% | Syncope, Grade 3-4 ([6]; human, in vivo): 0% | Vomiting, Grade 3-4 ([6]; human, in vivo): 3% | Weight decreased, Grade 3-4 ([6]; human, in vivo): 0%

CNC(=O)c1cc(Oc2ccc(NC(=O)Nc3ccc(Cl)c(C(F)(F)F)c3)cc2)ccn1 [sorafenib]
Objective responses [7]: very few objective responses | Overall survival [7]: improves overall survival
